Paper PMC8476055, “Synthesis and Biological Activity of Triterpene–Coumarin Conjugates” (Journal of Natural Products, 2021)
Where “and” joins values, the source holds several entries; their conditions need not be identical. Equal entries are not always repeated.

Assays:
[1] = tested on: Hep G2 cells; experiment: Annexin V-FITC/PI flow cytometry (apoptosis), Hep G2; type: cell-based, human; conditions: Hep G2, 72 h at IC50 concentration, mean ± S.E.M.
Procedure: (§1) In consideration of the cytotoxic results of these triterpene conjugates with the three cell lines assayed, three MA–diamine–coumarin conjugates (1, 4, and 7) and the MA–coumarin conjugate 10 were selected for the following cytometry studies on the three cancer cell lines. Thus, the apoptotic determination assays were performed through double staining with Annexin V (An-V), conjugated fluorescein isothiocyanate (FITC), and propidium iodide (PI). […] The values of percentage of total apoptosis were expressed as means ± SEM of at least two duplicate experiments (Figure 1).
(§2) Apoptosis was assessed by flow cytometry using a FACScan (fluorescence-activated cell sorter) flow cytometer (Coulter Corporation, Hialeah, FL, USA). For these assays, 5 × 10^4 B16–F10, 6 × 10^4 HT29 cells, and 15 × 10^4 Hep G2 cells were placed in 24-well plates with 1.5 mL of medium and incubated for 24 h. Subsequently, the cells were treated with the selected compounds in triplicate for 72 h at their corresponding IC50 concentrations. The cells were collected and resuspended in a binding buffer (10 mM HEPES/NaOH, pH 7.4, 140 mM NaCl, 2.5 mM CaCl2). Annexin V-FITC conjugate (1 mg/mL) was then added and incubated for 15 min at room temperature in darkness. Just before the analysis by flow cytometry, cells were stained with 20 μL of 1 mg/mL PI solution. In each experiment, approximately 10 × 10^3 cells were analyzed, and the experiment was duplicated twice.

[2] = tested on: HT29 cells; experiment: Annexin V-FITC/PI flow cytometry (apoptosis), HT29; type: cell-based, human; conditions: HT29, 72 h at IC50 concentration, mean ± S.E.M.
Procedure: as §1, §2

[3] = MTT assay, statements over the three nontumor cell lines; type: cell-based; conditions: human, rat, at the IC50 concentration of the respective cancer cell line; over HPF, IEC-18, WRL68; read-out: cell viability percentage of nontumor cells
Description: (§3) Only MA conjugates 7 and 10 were selected to compare the growth inhibitory effects in the three nontumor cell lines (HPF, IEC-18, and WRL68) versus the three cancer cell lines (B16–F10, HT29, and Hep G2). Therefore, the cytotoxic effects on B16–F10 murine melanoma cells were compared with those of HPF normal human epithelial lung fibroblasts, with similar tissue. Similarly, the cytotoxic effects of these conjugates on HT29 colon cancer cells and Hep G2 hepatoma cells were compared with those of nontumor cells of the same tissue, such as IEC-18 normal rat ileum cells and WRL68 normal human embryo liver cells, respectively.
The effect of the synthesized compounds on the viability of tumor cells was assessed using an MTT assay, based on the ability of living cells to cleave the tetrazolium ring, thus producing formazan, which absorbs at 570 nm. The MA conjugates (1–12) were assayed against the selected cancer cell lines. […] Relative cell viability, with respect to untreated control cells, was measured by absorbance at 550 nm on an ELISA plate reader (Tecan Sunrise MR20-301, TECAN, Austria). […] These experiments were measured and compared to the control after 72 h of treatment.

[4] = MTT assay, nontumor HPF cells; type: cell-based, human; conditions: human, HPF normal lung fibroblast cells; at the compound's IC50 concentration for B16–F10 cancer cells; read-out: percent viability (% viability) of HPF cells
Description: as §3
[…] ATTC HTB-38), Hep G2 human hepatocyte carcinoma cells (ECACC 85011430), nontumor human epithelial lung fibroblast cells HPF (ScienCell catalog (cat.) no. 3300), nontumor rat ileum cells IEC-18 (ECACC no. 88011801), and nontumor human embryo liver cells (ECACC 89121403) were cultured in DMEM medium supplemented with 2 mM glutamine, 10% heat-inactivated fetal bovine serum (FCS), 10.000 units/mL penicillin, and […]. These cells were incubated at 37 °C in an atmosphere of 5% CO2 and 95% humidity. The culture media were changed every 48 h, and the confluent cultures were separated with a trypsin solution (0.25% EDTA). Subconfluent monolayer cells were used in all experiments. All cell lines used were provided by the cell bank of the University of Granada (Spain).
The effect of the synthesized compounds on the viability of tumor cells was assessed using an MTT assay, based on the ability of living cells to cleave the tetrazolium ring, thus producing formazan, which absorbs at 570 nm. The MA conjugates (1–12) were assayed against the selected cancer cell lines. For an evaluation of the cytotoxic effects of these compounds, the cells were seeded in 96-well plates at an initial density of 5 × 10^3 B16–F10 cells, 6 × 10^3 HT29 cells, 15 × 10^3 Hep G2 cells, 8 × 10^3 HPF cells, 15 × 10^3 IEC-18 cells, and 11 × 10^3 WRL68 cells, per well. After incubation for 24 h, the cells were treated with the synthesized compounds in triplicate, at different concentrations (0–200 μg/mL), and incubated for 72 h. Thereafter, 100 μL of MTT solution (0.5 mg/mL) were added to each well. After 2 h of incubation, the cells were washed twice with phosphate buffered saline (PBS), and the formazan was resuspended in 100 μL of DMSO. Relative cell viability, with respect to untreated control cells, was measured by absorbance at 550 nm on an ELISA plate reader (Tecan Sunrise MR20-301, TECAN, Austria). […] These experiments were measured and compared to the control after 72 h of treatment.

[5] = tested on: B16–F10 cells; experiment: Cell-cycle distribution by PI flow cytometry, B16–F10; type: cell-based, murine; conditions: B16–F10, 72 h at IC50 concentration
Procedure: Based on the cytotoxicity shown by derivatives 1, 4, 7, and 10, a study was made concerning their effects on the distribution of the cell cycle in order to determine possible cytostatic effects caused by the cytotoxic response. The percentages of cells in the different phases of the cycle were analyzed at 72 h, by the incorporation of propidium iodide. […] The values of cell percentage were expressed as means ± SEM of at least two independent experiments performed in triplicate. Flow cytometry was also used to measure DNA ploidy and alterations in cell-cycle profiles. The DNA content is proportional to the fluorescence of propidium iodide, enabling the percentage of cells to be determined in each phase of the cycle and the cell subpopulations with different DNA contents to be visualized.
The method used to quantify the amount of DNA in the different phases of the cell cycle (G0/G1, S, and G2/M) was performed by flow cytometry, using a fluorescence-activated cell sorter (FACS) at 488 nm in an Epics XL flow cytometer (Coulter Corporation, Hialeah, FL, USA). For this assay, 5 × 10^4 B16–F10, 6 × 10^4 HT29 cells, and 15 × 10^4 Hep G2 cells were placed in 24-well plates with 1.5 mL of medium and incubated for 24 h. After this time, the cells were treated with the different selected compounds for 72 h at their corresponding IC50 concentrations. After treatment, the cells were washed twice with PBS, trypsinized, and resuspended in 1X TBS (10 mM Tris and 150 mM NaCl); thereafter, Vindelov buffer (100 mM Tris, 100 mM NaCl, 10 mg/mL Rnase, and 1 mg/mL PI, at pH 8) was added. Cells were stored on ice and, just before measurement, were stained with 10 μL of 1 mg/mL PI solution. Approximately, 10 × 10^3 cells were analyzed in each experiment. The experiments were performed three times with two replicates per assay.

## CC1(C)CC[C@]2(C(=O)NCCCNC(=O)c3cc4ccccc4oc3=O)CC[C@]3(C)C(=CC[C@@H]4[C@@]5(C)C[C@@H](O)[C@H](O)C(C)(C)[C@@H]5CC[C@]43C)[C@@H]2C1 [Compound 1, 2α,3β-Dihydroxy-N-(3′-(2″-oxo-2″H-chromene-3″-carboxamido)propyl)olean-12-en-28-amide]
[1]
  Early Apoptosis: 50.1 ± 4.5%
  Late Apoptosis: 19.4 ± 4.8%
  Necrosis: 1.8 ± 0.4%
  Total Apoptosis: 69.5 ± 2.3%
  Viable Cells: 28.8 ± 2.8%
[2]
  Early Apoptosis: 10.8 ± 0.6%
  Late Apoptosis: 29.2 ± 0.5%
  Necrosis: 3.7 ± 0.9%
  Total Apoptosis: 40.0 ± 0.5%
  Viable Cells: 56.3 ± 1.3%

## CC1(C)CC[C@]2(C(=O)NCCCNC(=O)/C=C/c3ccc(O)cc3)CC[C@]3(C)C(=CC[C@@H]4[C@@]5(C)C[C@@H](O)[C@H](O)C(C)(C)[C@@H]5CC[C@]43C)[C@@H]2C1 [Compound 7, 2α,3β-Dihydroxy-N-(3′-((E)-3″-(4‴-hydroxyphenyl)acrylamido)propyl)olean-12-en-28-amide]
[1]
  Early Apoptosis: 57.4 ± 4.3%
  Late Apoptosis: 18.6 ± 3.2%
  Necrosis: 2.2 ± 0.6%
  Total Apoptosis: 75.9 ± 2.0% and 76%
  Viable Cells: 21.9 ± 1.3%
[3]
  viability at 72 h: 61 to 88%
[4]
  viability at 72 h: 76.9 ± 2.9%
[2]
  Early Apoptosis: 16.2 ± 3.6%
  Late Apoptosis: 29.4 ± 1.6%
  Necrosis: 1.5 ± 0.4%
  Total Apoptosis: 45.6 ± 2.0%
  Viable Cells: 52.9 ± 2.0%
[5]
  percentage of cells in the G0/G1 phase: greater than 70%

## CC1(C)CC[C@]2(C(=O)NCCCNC(=O)Cc3cc(=O)oc4cc(O)ccc34)CC[C@]3(C)C(=CC[C@@H]4[C@@]5(C)C[C@@H](O)[C@H](O)C(C)(C)[C@@H]5CC[C@]43C)[C@@H]2C1 [Compound 4, 2α,3β-Dihydroxy-N-(3′-(2″-(7‴-hydroxy-2‴-oxo-2‴H-chromen-4‴-yl)acetamido)propyl)olean-12-en-28-amide]
[1]
  Early Apoptosis: 48.5 ± 3.8%
  Late Apoptosis: 20.1 ± 5.3%
  Necrosis: 1.9 ± 0.2%
  Total Apoptosis: 68.5 ± 1.6%
  Viable Cells: 29.7 ± 1.3%
[2]
  Early Apoptosis: 32.0 ± 2.3%
  Late Apoptosis: 20.5 ± 3.0%
  Necrosis: 6.2 ± 0.9%
  Total Apoptosis: 52.4 ± 3.0%
  Viable Cells: 41.4 ± 3.8%
[5]
  percentage of cells in the G0/G1 phase: greater than 70%

## CC1(C)CC[C@]2(C(=O)O)CC[C@]3(C)C(=CC[C@@H]4[C@@]5(C)C[C@@H](OC(=O)c6cc7ccccc7oc6=O)[C@H](OC(=O)c6cc7ccccc7oc6=O)C(C)(C)[C@@H]5CC[C@]43C)[C@@H]2C1 [Compound 10]
[1]
  Early Apoptosis: 19.2 ± 4.9%
  Late Apoptosis: 21.6 ± 3.2%
  Necrosis: 4.2 ± 1.1%
  Total Apoptosis: 40.8 ± 3.2%
  Viable Cells: 55.0 ± 1.4%
[3]
  viability at 72 h: 90%
[4]
  viability at 72 h: 92.9 ± 2.9%
[2]
  Early Apoptosis: 23.8 ± 4.2%
  Late Apoptosis: 34.1 ± 4.9%
  Necrosis: 6.5 ± 0.0%
  Total Apoptosis: 57.9 ± 1.6% and 58%
  Viable Cells: 35.7 ± 2.3%
[5]
  percentage of cells in the G0/G1 phase: greater than 70%
